# Literature values as cited in patent publication US8927002B2, “Stent with a coating or a basic body containing a lithium salt and use of lithium salts for prevention of restenosis” (Biotronik VI Patent AG, priority 2008, dated 2015).
# How the values were obtained:
# [1] = tested on: various prostate cancer cell lines; details: cell culture; by reducing gene expression in the S-phase of the cell cycle
# [2] = tested on: interleukins (IL-15; IL-8)
smiles,measurement,setting,value
[Cl-].[Li+] [lithium chloride],proliferation of various prostate cancer cell lines,[1],significantly suppresses the proliferation
same,secretion of certain interleukins (IL-15; IL-8),[2],increased secretion
